Assays:
[1] = tested on: Sca-1^+/lin^−/CD45^− murine bone marrow VSELs; assay: Ex vivo expansion of murine VSELs; format: cell-based; conditions: 1 mM VPA with 10 U/ml LH and 10 U/ml FSH in D-MEM, 5% FBS; feeder-free; at 2 months
Experimental: Murine VSELs were isolated by multi-parameter sorting using a MOFLOW™ XDP sorter (Beckman Coulter, Inc., Indianapolis, Indiana, United States of America). Highly purified Sca-1^+/lin^−/CD45^− murine bone marrow VSELs were cultured in D-MEM culture medium containing 5% fetal bovine serum (FBS) supplemented with 10 U/ml luteinizing hormone (LH) and 10 U/ml follicle-stimulating hormone (FSH) in a humidified incubator maintained at 37° C. with 5% CO2. VSELs were exposed to the HDAC inhibitor valproic acid (VPA; Sigma Aldrich, St. Louis, Missouri, United States of America) at a concentration of 1 mM. The cultures were supplemented with fresh LH and FSH every third day. The cultures were maintained for approximately two (2) months.

[2] = tested on: Human UCB-derived VSELs (CD133^+/lin^−/CD45^− cells); assay: Ex vivo expansion of human UCB-derived VSELs; format: cell-based; conditions: VPA (1 mM), LH (10 U/ml), FSH (10 U/ml), TGFβ (10 ng/ml) in D-MEM, 10% FBS; at 2 months
Experimental: Human UCB-derived VSELs were isolated by multi-parameter sorting using a MOFLOW™ XDP sorter (Beckman Coulter, Inc.). Small CD133^+/lin^−/CD45^− cells were plated in 96 well plates in D-MEM medium supplemented with 10% FBS in the presence of VPA (1 mM), LH (10 U/ml), FSH (10 U/ml) and transforming growth factor beta (TGFβ; 10 ng/ml). Cells were cultured for two (2) months in a humidified incubator at 37° C., 5% CO2. Fresh medium was added every 7 days.

## CCCC(CCC)C(=O)O [VPA, valproic acid]
[1]
  average expansion of sorted purified murine VSELs as compared to day 0: 21±3 fold
[2]
  average expansion of sorted purified human VSELs as compared to day 0: 32±5 fold

From patent publication US12116592B2, “Methods and compositions for ex vivo expansion of very small embryonic-like stem cells (VSELs)” (University of Louisville Research Foundation, Inc., priority 2016, dated 2024)
